Reference: patent publication US10106540B2, “HDAC6 inhibitors and their uses” (Universität Regensburg, priority 2014, dated 2018)

Assays:
HEL leukemic cells = assay: Western blot analysis in HEL leukemic cells (JAK2 V617F); assay type: cell-based, human; conditions: for concentration with about the same potency in hyperacetylation of tubulin-α: 24 h, Western blot
Description: Human leukemia cell line HEL with JAK2 V617F mutation (DSMZ Accession No: ACC-11).
(§1) The assay is carried out as described in Buchwald et al. 2010 and Buchwald et al. 2013. Briefly, cells were collected and lysed in NET-N buffer (150 mM NaCl, 1 mM EDTA, 50 mM Tris-HCl (pH 7.8), 0.5% Nonidet P-40 (NP-40), 1 mM phenylmethylsulfonyl fluoride, 0.5 mg/ml leupeptin and 0.5 mg/ml pepstatin) followed by mild sonification on ice. Protein lysate ([…]) was boiled in Laemmli buffer and separated on SDS-polyacrylamide gel electrophoresis for western blotting with specific antibodies. All lysates were assessed by Bradford assay for protein concentrations.

HCT-116 cells = assay: Western blot analysis in HCT-116 colon cancer cells; assay type: cell-based, human; conditions: HCT-116 cells, 24 h
Description: FIG. 5. Various cancer cells were treated for 24 h as shown and tested by Western blot analysis. […] Human colon cancer cell lines RKO (ATCC Accession No: CRL-2577) and HCT-116 (DSMZ Accession No: ACC-581). Western Blot Analysis a […] Protein lysate ([…]) was boiled in Laemmli buffer and separated on SDS-polyacrylamide gel electrophoresis for western blotting with specific antibodies. All lysates were assessed by Bradford assay for protein concentrations.

MAXF 401 = assay: In vitro activity against solid tumor cell lines (FACS analysis method a); assay type: cell-based; conditions: Homo sapiens, MAXF401, Breast
Description: (§2) Human breast cancer cell lines MAXF 401 and MAXF MCF-7 (Oncotest GmbH, Freiburg, Germany)
(§3) The assay is carried out as described in Pietschmann et al., 2012 and Brandl et al. 2012. Briefly, 10^5 cells were fixed in 1 ml 70% EtOH with 0.05% Tween-20 overnight at 4° C. The following day, cells were washed with 3 ml 38 mM sodium citrate, pH 7.4, and incubated for 20 min at 37° C. in 0.5 ml 38 mM sodium citrate, pH 7.4, supplemented with 50 μg/ml propidium iodide and 10 μg/ml RNase-A. DNA contents of the cells were measured by fluorescence-activated cell sorter (FACS). This method allows detection of the apoptotic subG1-fraction, which has a DNA content below 2n due to apoptotic cleavage of DNA. Equally, the cell cycle profile can be assessed with this method.
(§4) The novel HDAC6 inhibitors were tested in a panel of tumor cell lines for cytostatic/toxic activities (see Table 2).

MAXF MCF-7 = assay: as above; assay type: cell-based; conditions: Homo sapiens, MCF7, Breast
Description: as §2, §3, §4

PRXF DU-145 = assay: as above; assay type: cell-based; conditions: Homo sapiens, Prostate
Description: (§5) Human prostate cancer cell lines PRXF DU-145, PRXF LNCaP, PRXF PC-3M (Oncotest GmbH, Freiburg, Germany)
as §3, §4

PRXF LNCaP = assay: as above; assay type: cell-based; conditions: Homo sapiens, Prostate
Description: as §5, §3, §4

PRXF PC-3M = assay: as above; assay type: cell-based; conditions: Homo sapiens, Prostate
Description: as §5, §3, §4

UXF 1138 = assay: as above; assay type: cell-based; conditions: Homo sapiens, Uterus
Description: Human uterus cancer cell line UXF 1138 (Oncotest GmbH, Freiburg, Germany)
as §3, §4

[1] = test system: 42 solid tumor cell lines; assay: In vitro activity against solid tumor cell lines, mean of all lines; assay type: cell-based; conditions: average IC50 value from all 42 measurements
BV-173 cells [2] = assay: Western blot analysis in BV-173 cells; assay type: cell-based, human; conditions: for acetylation of histone H3: BV-173, 1 μM MARB1, 2 μM MARB2 or 2 mM VPA
Description: BV-173 cells (BCR-ABL positive leukemic cells) were used as control cells left (Ctl) or with 1 μM MARB1, 2 μM MARB2 or 2 mM VPA treated for 24 h. These concentrations were chosen to achieve equipotent effects on cells which was in preliminary tests (data not shown). Shown are acetylated tubulin-α, α-tubulin, acetylated histone H3, WT1, survivin and β-actin. The total amount of α-tubulin and β-actin were used as loading control. Mr, relative molecular weight in kilodaltons. The degradation of WT1 in patients treated with VPA cells bases on a loss of WT1 mRNA and the increased degradation of WT1 protein by induction of the E2 ubiquitin conjugase UbcH8.
(§6) Flow cytometric analysis of the induction of (A) apoptotic DNA fragmentation and (B) Cell cycle analysis of BV 173 cells. The cells were kept as control cells (Ctl), treated with 1 μM or 2 μM MARB1 MARB2 and 0.2 or 0.5 μM imatinib for 48 h. The data was received by two independent experiments. The individual compounds show only slight effects in the used concentrations; whereas their combination can effectively kill leukemic cells. (C) Western blot analysis on data from the BCR-ABL, acetylated tubulin and α-sliced PARP1; the total amount of tubulin-α serves as a loading control. BV-173 cells were treated for 24 h with 1 μM, or 2 μM MARB1 or MARB2.
(§7) Human leukemia cell lines BV 173 and K562 with BCR-ABL mutation (Leibniz Institute DSMZ—German Collection of Microorganisms and Cell Cultures, DSMZ Accession Nos: ACC-20 and ACC-10).
as §1

BV-173 cells [3] = assay: Flow cytometric analysis of BV-173 cells, combination with imatinib; assay type: cell-based, human; conditions: BV-173, 1 μM MARB1 or 2 μM MARB2 combined with 0.2 or 0.5 μM imatinib, 48 h
Description: as §6, §7
as §3, with “This method allows detection of the apoptotic subG1-fraction, which has a DNA content below 2n due to apoptotic cleavage of DNA.” left out

RKO cells = assay: Western blot analysis in RKO colorectal cancer cells; assay type: cell-based, human
Description: FIG. 5. Various cancer cells were treated for 24 h as shown and tested by Western blot analysis.
(D) Inhibition of HDAC6 protects it from degradation by the addition of a pro-apoptotic agent (staurosporine, ST).
The total amount of vinculin serves as a loading control; Proof of tubulin acetylation serves as proof of the treatment accuracy. The loss of the caspase-3 corresponds to the induction of apoptosis (programmed cell death).
Human colon cancer cell lines RKO (ATCC Accession No: CRL-2577) and HCT-116 (DSMZ Accession No: ACC-581).
as §1

[4] = BV-173, 1 μM MARB1, 2 μM MARB2, 24 h

## Cc1[nH]c2ccccc2c1CCNCc1ccc(/C=C/C(=O)NO)cc1 [LBH589, reference compound]
HEL leukemic cells; compared to other inhibitors
  acetylation of tubulin-α: decreased acetylation of tubulin-α
HCT-116 cells
  tubulin acetylation and degradation: degradation of tubulin

## CN1CC(=O)N2Cc3c(c4ccccc4n3Cc3ccc(C(=O)NO)cc3)C(C2)C1=O (stereo not drawn) [MARB2, N-Hydroxy-4-((5-methyl-3,6-dioxo-4,5,6,7-tetrahydro-1H-2,7-methano[1,4]diazonino[6,7-b]indol-12(3H)-yl)methyl)benzamide]
MAXF 401
  IC50: 13.7 µM
MAXF MCF-7
  IC50: 7.69 µM
PRXF DU-145
  IC50: 10.3 µM
PRXF LNCaP
  IC50: 4.8 µM
PRXF PC-3M
  IC50: 20.8 µM
UXF 1138
  IC50: 5.49 µM
[1]
  IC50: 16.4 µM
BV-173 cells [2]; [4]
  acetylation of tubulin-α: hyperacetylation of tubulin-α
  expression of survivin: reduction of the expression of survivin
BV-173 cells [2]; 24 h
  acetylation of histone H3: Neither MARB1, nor MARB2 cause these alterations
BV-173 cells [2]; BV-173, compound alone, 24 h
  BCR-ABL expression on the protein level: do not affect
BV-173 cells [2]; BV-173, with imatinib, 24 h
  BCR-ABL stabilization/degradation in combination with imatinib: significantly inhibit the unwanted stabilization of BCR-ABL
BV-173 cells [3]
  apoptotic and necrotic sub-G1 populations: significantly increases
HEL leukemic cells
  concentration with about the same potency in hyperacetylation of tubulin-α: ~2 µM
HCT-116 cells
  tubulin acetylation and degradation: starts the hyperacetylation of tubulin in colon carcinoma cells (RKO and HCT-116 cells) without destroying it
RKO cells; 0.5 μM, 24 h
  hyperacetylation of tubulin: sufficient to induce hyperacetylation of tubulin
RKO cells; with staurosporine
  HDAC6 loss in staurosporin (ST)-treated cells: protects ST-treated RKO cells

## CCCC(CCC)C(=O)O [VPA, reference compound]
BV-173 cells [2]; 24 h
  acetylation of histone H3: induces hyperacetylation of histone H3

## CN1CCc2c(c3ccccc3n2Cc2ccc(C(=O)NO)cc2)C1 [tubastatin A, reference compound]
HEL leukemic cells
  concentration with about the same potency in hyperacetylation of tubulin-α: ~5 µM
